# Test results reported in patent US20030119186A1, “Enzyme-mediated modification of fibrin for tissue engineering: fibrin formulations with peptides” (Eidgenossische Technische Hochschule Zurich, priority 1998, published 2003).
# Where “and” joins values, the source holds several entries; their conditions need not be identical. Identical values can stand only once.
# What was measured:
# [1] = test system: day 8 chick dorsal root ganglia; experiment: Neurite outgrowth from dorsal root ganglia embedded in three dimensional peptide-modified fibrin gels, normalized to unmodified fibrin; assay type: cell-based; settings: for correlation between peptide concentration and level of enhancement of neurite outgrowth / peptide concentration showing maximal enhancement of neurite outgrowth / concentration of incorporated peptide giving maximal effect on neurite outgrowth: single peptide cross-linked into fibrin, concentration series; for peptide concentration showing maximal enhancement of neurite outgrowth / concentration of incorporated peptide giving maximal effect on neurite outgrowth: growth at 24 and 48 hr; for Enhancement of Neurite Outgrowth (%): bi-domain peptide cross-linked into fibrin at 8 mol/mol fg without heparin, 48 hours, relative to unmodified fibrin
# Experimental: FIG. 1 Enhancement of neurite outgrowth with HAV (SEQ. I.D. NO. 6) modified fibrin gels. A concentration series of HAV (SEQ. I.D. NO. 6) cross-linked into fibrin was tested in triplicate with day 8 chick dorsal root ganglia. The level of growth at 24 and 48 hours was calculated and normalized to growth in unmodified fibrin. Mean and standard error of the mean are shown. Legend to FIG. 1: -[…]- 24 Hours, -⋄- 48 Hours.
# FIG. 8 Heparin binding peptides derived from three separate proteins, NCAM (SEQ. I.D. NO. 7), platelet factor 4 and antithrombin III were cross-linked into fibrin at 8 mol/mol fg. The level of neurite outgrowth at 48 hours was normalized against growth in unmodified fibrin and is shown below. Additionally, controls of crosslinked peptide with heparin or just soluble peptide were tested. […] Mean and standard error of the mean are shown. Legend for FIG. 8: ? Peptide Grafted at 8 mol/mol Fg, □ Peptide Grafted at 8 mol/mol Fg with Soluble Heparin, ? Peptide Added in Soluble Phase.
# Multiple peptide sequences from extracellular matrix proteins have been chosen. These proteins were chosen in part because of their reported ability to enhance neurite outgrowth (Yamada, 1991, Tashiro, et al., 1989). These proteins have been tested at various concentrations. To test these peptides, specific selected peptide sequences were cross-linked into a three dimensional fibrin matrix with a day 8 dorsal root ganglia embedded into the gels. The neurites were grown for 48 hr, and the migration rate of the neurites extending from the ganglia was quantified for each condition at both 24 and 48 hr. This growth was then normalized to the growth in unmodified fibrin. […] HAV (SEQ. I.D. NO. 6) achieved a maximal effect at 2 mol/mol fg while RGD (SEQ. I.D. NO. 2) achieved a maximal effect at 1.5 mol/mol fg of incorporated peptide.
# In one example, the peptide was cross-linked into the gel alone and in the second example, it was incorporated in the presence of heparin. […] Therefore, the effects of interaction between the growing neurites and either a heparin binding domain or heparin itself could be determined. When the peptide was incorporated without heparin present, it was able to enhance the extension of neurites from day 8 chick dorsal root ganglia. Three bi-domain peptides, each with a different heparin binding domain, were tested and gave statistically better growth than unmodified fibrin (FIG. 8). The level of improvement ranged from 75% to 25%. This level of enhancement could be correlated to the binding affinity of the heparin binding domain that was incorporated (Table 3). When heparin was added at the beginning of the study, it was discovered that this abolished the effect, resulting in growth similar to that seen in unmodified fibrin.
# [2] = Elution from heparin affinity column (relative heparin binding affinity); settings: relative heparin binding affinity of bi-domain peptide
# Text: Table 3 Provides results of the relative heparin binding affinity and enhancement of three dimensional neurite outgrowth for several heparin binding peptides. There is a correlation between the binding strength for each peptide and the percent enhancement of neurite outgrowth.
Substance,correlation between peptide concentration and level of enhancement of neurite outgrowth [1],peptide concentration showing maximal enhancement of neurite outgrowth [1],Elution from Heparin Affinity Column (Mol NaCl) [2] [Mol NaCl],Enhancement of Neurite Outgrowth (%) [1] [%],concentration of incorporated peptide giving maximal effect on neurite outgrowth [1]
YIGSR (heparin binding peptide),linear correlation,6 mol peptide/mol fibrinogen,,,
RNIAEIIKDI,linear correlation,8 mol peptide/mol fibrinogen,,,
LNQEQVSP K(βA)FAKLAARLYRKA [ATIII],,,0.67,73.1,
LNQEQVSP KHKGRDVILKKDVR (LNQEQVSPKHKGRDVILKKDVR; heparin binding sequence) [PF4],,,0.34,20.2,
HAV (heparin binding peptide),,,,,2 mol/mol fg
LNQEQVSP YKKIIKKL (LNQEQVSPYKKIIKKL) [NCAM],,,0.35,24.5,
RGD,,,,,2 mol/mol fg and 1.5 mol/mol fg
IKVAV (heparin binding peptide),linear correlation,8 mol peptide/mol fibrinogen,,,
